Measurements: patent US11324787B2, “Analytical methods and arrays for use in the same” (SENZAGEN AB, priority 2017, dated 2022)
Counter-ions that a name gives are not always drawn. Like-named read-outs stand apart in the source and are kept apart here.

Assays:
[1] = test system: myeloid cell line derived from MUTZ-3; assay: GARD binary classification (SVM on GARD prediction signature, 200 transcripts)
[2] = cited from earlier work; for binary class (HP*): based on human potency [41] where available, otherwise according to CLP; for HP: human potency; for Human potency [41]: test set; for Human potency: class 1 representing highest potency, 6 representing non-sensitizers
[3] = test system: myeloid cell line derived from MUTZ-3; assay: GARD random forest model predicting CLP categories (52 transcripts, Example A); conditions: test set; for GARD predicted CLP: majority voting across replicates; for predicted CLP: separate replicates
[4] = cited from earlier work; for binary class: sens / non-sens; for true CLP: test set
[5] = test system: myeloid cell line derived from MUTZ-3; assay: Cytotoxicity / viability by flow cytometry (propidium iodide), 24 hours exposure; conditions: yes/no; MUTZ-3 derived cells
[6] = chemicals of random forest training and test set
[7] = Table 9, chemicals training set
[8] = Table 8 chemical list, GARD SVM decision value
[9] = CLP annotation of 37 novel chemicals

Compound	HP [2, 6]	CLP [4, 7]	CLP [4, 6]	binary class [4, 6]	SVM DV [1, 8]	further results
C=O [formaldehyde]						SVM DV [1]: 2.32
CC=Cc1ccc(OC)cc1 [anethole]	5					binary class (HP*) [2]: NS (5-6 = NS); Human potency [41] [2]: 5; GARD predicted CLP [3]: 1B; predicted CLP [3]: 1B
O=[N+]([O-])c1ccc(CBr)cc1 [4-nitrobenzylbromide]		1A	1A	sens		
O=C(O)C(O)C(O)C(=O)O (stereo not drawn) [tartaric acid]						cytotox [5]: no
O=C(O)c1ccc(O)cc1 [p-hydroxybenzoic acid]		no cat	no cat	non-sens		
COC(=O)c1ccccc1O [methyl salicylate]	5	no cat	no cat	non-sens	−1.53	Human potency [2]: 5
CCCCCCCCCCCCCC(=O)OC(C)C [isopropyl myristate]	5	1B	1B	sens		binary class (HP*) [2]: NS (5-6 = NS); CLP [4, 9]: 1B; cytotox [5]: no
CC(O)C(=O)O (stereo not drawn) [lactic acid]	6				−2.38	
C=CC(=O)OCCO [2-hydroxyethyl acrylate]					8.87	
CCCCCCCCCCCCOC(=O)c1cc(O)c(O)c(O)c1 [lauryl gallate]	2	1A	1A	sens		
O=C(Oc1ccccc1)c1ccccc1 [phenyl benzoate]	3	1B	1B	sens		
O=C(O)CC(O)(CC(=O)O)C(=O)O [citric acid]						cytotox [5]: no
xylene	6					Human potency [41] [2]: 6
NCCN [ethylenediamine]					1.12	
O=C(O)c1ccccc1 [benzoic acid]			no cat	non-sens		binary class (HP*) [2]: NS (5-6 = NS); GARD predicted CLP [3]: no cat; predicted CLP [3]: no cat; CLP ([4]; Table 10, chemicals test set 1): no cat; true CLP ([4]; per replicate line): no cat; true CLP [4]: no cat
CC(C=O)Cc1ccc(C(C)(C)C)cc1 (stereo not drawn) [lilial]		1B	1B	sens		binary class (HP*) [2]: S (HP 1-4 = S); CLP [4, 9]: 1B
O=CCc1ccccc1 [phenylacetaldehyde]		1B	1B	sens		
Clc1ccccc1 [chlorobenzene]					−1.63	
Nc1ccc(N)cc1 [PPD]					5.32	Human potency [2]: 1

Compound	HP [2, 6]	CLP [4, 7]	CLP [4, 6]	binary class [4, 6]	SVM DV [1, 8]	further results
O=C(O)c1ccccc1O [salicylic acid]	6				−1.41	Human potency [2]: 6
Nc1ccc(C(=O)O)cc1 [PABA]					−1.04	Human potency [2]: 5
O=[N+]([O-])c1ccc(F)c([N+](=O)[O-])c1 [2,4-dinitrofluorobenzene, 2,4-Dinitrofluorobenzene]		1A	1A	sens		binary class (HP*) [2]: S (HP 1-4 = S); CLP [4, 9]: 1A; GARD binary prediction ([1]; SVM, median calibrated decision value of replicates >0 = sensitizer): S
Oc1ccc(O)cc1 [hydroquinone]	3	1A	1A	sens		
CCCCCC [hexane]	6	no cat	no cat	non-sens		
CCCCCCC(C=O)=Cc1ccccc1 [hexylcinnamic aldehyde]	5	1B	1B	sens	1.24	HP ([2]; 11 benchmark chemicals): 5; Human potency [2]: 5; CLP ([4]; 11 benchmark chemicals): 1B; binary class ([4]; 11 benchmark chemicals): sens
dextran	6	no cat	no cat	non-sens		binary class (HP*) [2]: NS (5-6 = NS); cytotox [5]: no
N#CCCC(Br)(C#N)CBr (stereo not drawn) [methyldibromo glutaronitrile]	2	1A	1A	sens		
OCC=Cc1ccccc1 [cinnamyl alcohol]	3	1B	1B	sens		
Nc1ccccc1O [2-aminophenol]	2				5.98	HP ([2]; 11 benchmark chemicals): 2; Human potency [2]: 2
chloroanilin		1B	1B	sens		
CCCCCCCCCCCCOS(=O)(=O)[O-].[Na+] [Sodium lauryl sulfate]					−1.52	
CCCCCCCC/C=C\CCCCCCCC(=O)OCCOCC(OCCO)C1OCC(OCCO)C1OCCO (stereo not drawn) [Tween 80]	6	no cat	no cat	non-sens	−1.39	Human potency [2]: 6
OC/C=C/c1ccccc1 [Cinnamic alcohol]					2.94	Human potency [2]: 3
Nc1ccc(N)cc1 [p-phenylenediamine]		1A	1A	sens		CLP ([4]; 11 benchmark chemicals): 1A; binary class ([4]; 11 benchmark chemicals): sens
CC(C)=CCC/C(C)=C/CO [geraniol]					1.76	
C[S+](C)[O-] [dimethyl sulfoxide]	6		no cat	non-sens		
CC(C)O [isopropanol]	5	no cat	no cat	non-sens	−1.37	Human potency [2]: 5
O=[N+]([O-])c1ccc(Cl)c([N+](=O)[O-])c1 [2,4-dinitrochlorobenzene]	1	1A	1A	sens		HP ([2]; 11 benchmark chemicals): 1; CLP ([4]; 11 benchmark chemicals): 1A; binary class ([4]; 11 benchmark chemicals): sens

Compound	HP [2, 6]	CLP [4, 7]	CLP [4, 6]	binary class [4, 6]	SVM DV [1, 8]	further results
OCC(O)CO [glycerol]	6				−2.05	Human potency [2]: 6
CCOC(=O)c1ccccc1C(=O)OCC [diethyl phthalate]	6		no cat	non-sens	−2.15	GARD predicted CLP [3]: no cat; predicted CLP [3]: no cat; CLP ([4]; Table 10, chemicals test set 1): no cat; true CLP ([4]; per replicate line): no cat; true CLP [4]: no cat
O=CC=O [glyoxal]					1.08	
O=c1c(-c2ccccc2)c1-c1ccccc1 [diphenylcyclopropenone]	1	1A	1A	sens		
[K+].[K+].[O]=[Cr](=[O])([O-])[O][Cr](=[O])(=[O])[O-] [potassium dichromate]		1A	1A	sens		
O=Cc1ccccc1 [benzaldehyde]					−2.13	
Oc1cccc(O)c1 [resorcinol]	4				1.03	HP ([2]; 11 benchmark chemicals): 4; Human potency [2]: 4
CCCOC(=O)c1cc(O)c(O)c(O)c1 [propyl gal late]						CLP ([4]; Table 10, chemicals test set 1): 1A
NC[C@H]1O[C@H](O[C@H]2[C@H](O)[C@@H](O[C@H]3O[C@H](CO)[C@@H](O)[C@H](N)[C@H]3O)[C@H](N)C[C@@H]2N)[C@H](O)[C@@H](O)[C@@H]1O [kanamycin A]		no cat	no cat	non-sens		binary class (HP*) [2]: NS (5-6 = NS)
Sc1nc2ccccc2s1 [2-mercaptobenzothiazole]	3	1A	1A	sens	2.52	Human potency [2]: 3
CC1(C)S[C@@H]2[C@H](NC(=O)Cc3ccccc3)C(=O)N2[C@H]1C(=O)O [Penicillin G]					1.06	Human potency [2]: 3
CC=Cc1ccc(O)c(OC)c1 [isoeugenol]	2	1A	1A	sens		
Oc1ccccc1 [phenol]						SVM DV [1]: −1.08
CCCCCCCC(=O)O [octanoic acid]	6	no cat	no cat	non-sens	−1.19	Human potency [2]: 6
C=CCc1ccc(O)c(OC)c1 [eugenol]					1.02	
CC(O)CO (stereo not drawn) [Propylene glycol]					−1.18	Human potency [2]: 5
CCOC(=O)/C=C\C(=O)OCC [diethyl maleate]	2		1B	sens		Human potency [41] [2]: 2; GARD predicted CLP [3]: 1A; predicted CLP [3]: 1A; CLP ([4]; Table 10, chemicals test set 1): 1B; true CLP ([4]; per replicate line): 1B; true CLP [4]: 1B
CCCCBr [1-brombutane, 1-bromobutane]			no cat	non-sens		binary class (HP*) [2]: NS (5-6 = NS); GARD predicted CLP [3]: no cat; predicted CLP [3]: no cat; CLP ([4]; Table 10, chemicals test set 1): no cat; true CLP ([4]; per replicate line): no cat; true CLP [4]: no cat
CC(CC=O)CCCC(C)(C)O (stereo not drawn) [hydroxycitronellal]	4	1B	1B	sens		
